Marks after values point to notes of the source that are not given here.

Results on one substance are retold here after US8008258B2, “Cop 1 for treatment of inflammatory bowel diseases” (Yeda Research and Development Co. Ltd., priority 2003, dated 2011).

For assay [1], the system named is TGF-β secretion by spleen and MLN cells. Description: TGF-β secretion by spleen and MLN cells (ELISA). Format: cell-based. As to conditions: colitis-induced BALB/c mice treated with GA; anti-CD3 stimulation. The protocol: FIGS. 6A-6B show the effect of GA treatment on TGF-β secretion by lymphocytes of TNBS-induced BALB/c mice. Cells of spleen or mesenteric lymph nodes (MLN) from normal mice, colitis-induced mice, and colitis-induced mice treated with GA were cultured either with GA (50 μg/ml) (FIG. 6A) or immobilized anti-CD3 (5 μg/ml) (FIG. 6B). After 72 hours, supernatants from six culture wells were pooled and TGF-β was measured by ELISA in duplicates. Results are expressed as TGF-β concentration (pg/ml±1 SD) and represent one of two similar experiments, using pooled cells from 3-5 mice in each group. # Indicates significant decrease in TGF-β in colitic mice in comparison to normal mice. * Indicates significant increase in TGF-β induced by GA treatment in comparison to untreated colitis induced mice.
Reactivity assays. Spleens and mesenteric lymph nodes (MLN) cells (0.5×10^6 cell/well) were cultured with either GA (50 μg/ml), colon extract (200 μg/ml), immobilized anti-CD3 (5 μg/ml), or PBS control, in a final volume of 250 μl/well (6 wells for each antigen). For proliferation assay, cells were cultured in RPMI 1640 with 10% FCS, pulsed with 1 μCi of [3H] thymidine after 48 h incubation, and harvested 12 h later. […]
In general terms: ELISA stands for enzyme-linked immunosorbent assay.

The next assay relates to DSS-induced colitis. Description: Dextran sulfate sodium (DSS)-induced colitis in C57BL/6 mice. Format: in vivo. As to conditions: GA 2.5 mg/day SC daily, by day 7 after DSS feeding, preliminary experiment. The protocol: Feeding mice for several days with dextran sulfate sodium (DSS) polymers in the drinking water induces an acute colitis with bloody diarrhea, histological damage, and inflammation (Wirtz and Neurath, 2000).
Female C57BL/6, 7 weeks old mice, were fed with 2.5% DSS solution in the drinking water for 7 days. GA was administered subcutaneously by daily injections—2.5 mg/day, in PBS, starting either 7 days before or in the same day of DSS feeding.

The test system of a further assay is TNBS-induced colitis. Put plainly: TNBS-induced colitis in SJL/J mice, various GA treatment modes. Type of assay: in vivo. Details: key to Macroscopic scoring of colon damage: Ulceration (max 10): 0 = completely normal, 10 = most severe ulceration; key to Macroscopic scoring of colon damage: Adhesion (max 2): adhesion score, 0 to 2; key to Macroscopic scoring of colon damage: Diarrhea (max 1): diarrhea score, 0 to 1; key to Macroscopic scoring of colon damage: Thickness (max 1): thickness score, 0 to 1. As to conditions: for Decrease in the total histological score: statistically insignificant; for Macroscopic scoring of colon damage: Adhesion (max 2) / Macroscopic scoring of colon damage: Diarrhea (max 1) / Macroscopic scoring of colon damage: Thickness (max 1) / Macroscopic scoring of colon damage: Total Score (max 14) / Macroscopic scoring of colon damage: Ulceration (max 10): scoring 5 days after disease induction. The protocol: Induction of cholitis in mice. TNBS-colitis was induced by rectal instillation of 2,4,6-trinitrobenzene sulfonic acid 5% (w/v), mixed with an equal volume of ethanol, into anesthetized mice (100 μl/mouse). Each treatment group included 6-12 mice. Mice that died before day 4 were considered as treatment casualties and were not taken into consideration.
Assessment of colitis. Weight changes and survival were monitored daily. Five to eight days following TNBS instillation, mice were sacrificed and macroscopic as well as microscopic colonic damage was evaluated.
Macroscopic colonic scoring. Gross colonic damage was graded according to Reuter et al. (1996), using the combined values of the four standard macroscopic parameters: degree of colonic ulcerations (scale from 0—completely normal, to 10—most severe); intestinal and peritoneal adhesions (0 to 2); diarrhea (0 to 1); and thickness (0 to 1). The total score is the arithmetic sum of the four scores. The evaluation was performed in a blind procedure.
Microscopic scoring. Proximal, medial, and distal portions of colon were fixed in 10% phosphate-buffered formalin. Paraffin-embedded sections were stained with hematoxylin and eosin. The degree of histological damage and inflammation was graded according to Elson et al. (1996) using the combined values of the four microscopic parameters: extent (scale from 0—completely normal, to 2—involving more than one segment); inflammation (0—none to 3—severe); damage (0 to 3—severe transmural); and regeneration (0—complete re-eptihelization to 3—none). The total score is the arithmetic sum of the four scores. The evaluation was performed in a blind procedure.
Oral treatment—250 μg/day in PBS, fed by gastric intubation with an 18-gauge stainless steel feeding needle. Unless otherwise stated, feedings were performed on days-7, -5, -3, -1, 0, 2, 4 and 6, relative to the day of TNBS instillation. […]
To explore whether the beneficial effect of GA on TNBS-induced colitis is restricted to oral administration in the BALB/c strain or represents a more general effect, we studied the ability of GA administered by different routes and dosages to inhibit TNBS-induced colitis in two additional strains of mice.

In assay [2] the test system is TNF-α secretion by spleen and MLN cells. Put plainly: TNF-α secretion by spleen and MLN cells (ELISA). Format: cell-based, mice. The protocol: FIGS. 5A-5C show the effect of GA on TNF-α secretion in different mouse strains. The responses of normal mice, colitis-induced mice, and colitis-induced mice treated with GA orally or parenterally daily are compared in the BALB/c (FIG. 5A), (SJL/JxBALB/c)F1 (FIG. 5B), and SJL/J (FIG. 5C) strains. Cells from spleens and mesenteric lymph nodes (MLN) were cultured, 7 days after disease induction, with immobilized anti-CD3 (5 μg/ml). After 24 hours, supernatants from six culture wells were pooled and TNF-α was measured by ELISA in duplicates. Results are expressed as TNF-α concentration (pg/ml±SD) and represent one of two similar experiments, using pooled cells from 3-5 mice in each group. # Indicates significant increase in TNF-α in colitic mice in comparison to normal mice. * Indicates significant decrease in TNF-α induced by GA treatment in comparison to untreated colitis induced mice.
Reactivity assays. Spleens and mesenteric lymph nodes (MLN) cells (0.5×10^6 cell/well) were cultured with either GA (50 μg/ml), colon extract (200 μg/ml), immobilized anti-CD3 (5 μg/ml), or PBS control, in a final volume of 250 μl/well (6 wells for each antigen). For proliferation assay, cells were cultured in RPMI 1640 with 10% FCS, pulsed with 1 μCi of [3H] thymidine after 48 h incubation, and harvested 12 h later. For cytokine (TNF-α and TGF-β) assay, cells were cultured in serum-free medium (DCCM-1), supernatants were collected after 72 h, and tested for the cytokines by ELISA using mAbs pairs (R&D Systems, Minneapollis, Minn.) according to the manufacturer's instruction.

The mark [3] stands for this setting: GA injected daily (from day −7), 2.5 mg/mouse SC.
[4] abbreviates: GA oral every other day (from day −7), 0.25 mg, 8 feedings.

On to glatiramer acetate [GA], for which the “TGF-β secretion in the MLN relative to the secretion of normal mice” value in assay [1] came out at 2.2 folds. Moreover, the Maximum weight loss with DSS-induced colitis (injected from day 0) was 4%. In the assay on DSS-induced colitis (injected from day −7), this substance had a Maximum weight loss of 7%. The “Reduction in macroscopic score versus untreated control” value in the assay on TNBS-induced colitis (GA daily injections from day −7) amounted to 2.7 fold. Moreover, the “Mortality (succumbed)” value with TNBS-induced colitis (daily injection of GA) is on record as 8%. Besides, in the assay with TNBS-induced colitis (daily-injected mice), the “Inhibition of weight loss caused by TNBS colitis” value is reported as “major significant inhibition of weight loss”. Moreover, the “Decrease in the total histological score” value in the assay with TNBS-induced colitis (feeding) was 0.5 points. In addition, the “Decrease in the total histological score” value with TNBS-induced colitis (injection) was determined as 1.8 points. Also, in the assay on TNBS-induced colitis (oral treatment with GA), the “Decrease in the total macroscopic score versus untreated mice” value is reported as 1.7 Points. For the same substance, in the assay on TNBS-induced colitis (oral treatment with GA, by day 5), the Mortality rate was determined as 18%. The “Inhibition of weight loss caused by TNBS colitis” value in the assay on TNBS-induced colitis (orally-treated mice) is “modest, statistically insignificant, inhibition of weight loss”. Besides, in the assay with TNBS-induced colitis (setting [3]), the “Macroscopic scoring of colon damage: Adhesion (max 2)” value was found to be 1.2, the “Macroscopic scoring of colon damage: Diarrhea (max 1)” value was determined as 0.5, the “Macroscopic scoring of colon damage: Thickness (max 1)” value is on record as 0.5 and the “Macroscopic scoring of colon damage: Total Score (max 14)” value is recorded as 5.7*. Further, the “Macroscopic scoring of colon damage: Ulceration (max 10)” value in the assay with TNBS-induced colitis (setting [3]) was found to be 3.5. In the assay with TNBS-induced colitis (setting [4]), the “Macroscopic scoring of colon damage: Adhesion (max 2)” value is 1.8, the “Macroscopic scoring of colon damage: Diarrhea (max 1)” value was 0.9, the “Macroscopic scoring of colon damage: Thickness (max 1)” value is reported as 0.9 and the “Macroscopic scoring of colon damage: Total Score (max 14)” value amounted to 10.7. For the same substance, in the assay on TNBS-induced colitis (setting [4]), the “Macroscopic scoring of colon damage: Ulceration (max 10)” value stood at 7.1. Moreover, the “Effect of GA treatment on TNF-α levels” value in assay [2] (SJL/J mice parenterally treated daily with GA) is “drastic decrease in TNF-α levels”. Besides, the “Effect of GA treatment on TNF-α secretion in response to anti-CD3” value in assay [2] (all strains, both spleens and MLN, all instances except MLN of SJL/J mice treated orally with GA) is given as “substantial reduction in TNF-α”. Also, the “TNF-α secretion on in vitro stimulation” value in assay [2] (in vitro stimulation of cells by GA (50 μg/ml)) is given as “did not result in secretion of TNF-α”.
